Data: patent publication US9040547B2, “Pyrrolopyrimidine and purine derivatives” (PFIZER INC., priority 2011, dated 2015)

Columns and labels:
Type in all cases: cell-based
NCI-H1975 = assay: Cell proliferation assay (CellTiter-Glo), NCI-H1975; details: Homo sapiens, value marked (H1975), read-out: 3T3 L858R_T790M IC50, (H1975)
Method: (§1) Cell proliferation was measured using the CellTiter-Glo® Luminescent Cell Viability Assay. The assay involves the addition of a single reagent (CellTiter-Glo® Reagent) directly to cells cultured in serum-supplemented medium. The assay uses this one-step addition to induce cell lysis and generate a luminescent signal proportional to the amount of ATP present which is directly proportional to the number of metabolically active cells present in culture. The following cell lines were evaluated in this assay: NIH3T3/EGFR_L858R, NIH3T3/EGFR_E746-A750_deletion, NIH3T3/EGFR L858R+T790M, NIH3T3/EGFR_E746-A750_deletion+T790M, PC-9, PC9-DRH, NCI-H1975, and NCI-H3255. NIH/3T3 parental cells, NCI-H1975, and NCI-H3255 were purchased from the American Type Culture Collection (Manassas, Va.), and PC-9 cells were obtained from Japan. All cells were cultured according to recommendations. NIH/3T3 cells were grown in DMEM (Invitrogen, Carlsbad, Calif.) supplemented with 10% newborn calf serum (Invitrogen), and NIH3T3/EGFR mutant cells were grown in complete media with 5 μg/mL puromycin (Invitrogen). PC-9, NCI-H1975, and NCI-H3255 were grown in RPMI (Invitrogen, Carlsbad, Calif.) supplemented with 10% FBS (Sigma, St Louis, Mo.), and PC9-DRH cells were grown in complete media with 2 uM PF-00299804. Plasmids (pLPCX) with various EGFR constructs were made by GenScript (Piscataway, N.J.), and stable pools of NIH/3T3 cells expressing these constructs were made at Pfizer La Jolla. PC9-DRH cells were generated at Pfizer La Jolla by exposing cells to increasing concentrations of PF-00299804. Cells were plated in complete culture media (3000-5000 cells/well, 50 μl/well) on the bottom of white clear-bottom tissue culture treated microtiter plates (#3610, Corning Inc, Corning, N.Y.) and allowed to adhere overnight at 37° C., 5% CO2. The following day, compound dilution plates were prepared in 96 well clear V-bottom 0.5 mL polypropylene block plates (#3956, Corning, Inc). All cell lines were not evaluated for each compound. Each compound evaluated was prepared as a DMSO stock solution (10 mM). Compounds were tested in duplicate on each plate, with an 11-point serial dilution curve (1:3 dilution). Compound treatment (50 μl) was added from the compound dilution plate to the cell plate. The highest compound concentration was 1 or 10 μM (final), with a 0.3% final DMSO (#D-5879, Sigma, St Louis, Mo.) concentration. Plates were then incubated at 37° C., 5% CO2. After three to five days of compound treatment, CellTiter-Glo® Reagent (#G7573, Promega, Madison, Wis.) was prepared in one of two ways. If thawing a frozen aliquot of CellTiter-Glo® Reagent, the aliquot was thawed and equilibrated to room temperature prior to use while keeping it protected from light. Alternatively, new bottles of CellTiter-Glo® Buffer and CellTiter-Glo® Substrate were thawed and equilibrated to room temperature prior to use. CellTiter-Glo® Buffer (100 mL) was transferred into the amber bottle containing CellTiter-Glo® Substrate to reconstitute the lyophilized enzyme/substrate mixture, forming the CellTiter-Glo® Reagent. The reconstituted reagent was mixed by gently inverting the contents to obtain a homogeneous solution, and went into solution easily in less than one minute. Any unused reconstituted CellTiter-Glo® Reagent was immediately aliquoted and frozen at −20° C., protected from light. Cell plates were equilibrated at room temperature for approximately 30 minutes. An equivolume amount of CellTiter-Glo® Reagent (100 μL) was added to each well. Plates were mixed for two minutes on an orbital shaker to induce cell lysis, and then allowed to incubate at room temperature for 10 minutes to stabilize the luminescent signal. Luminescence was recorded using the PerkinElmer EnVision Excite Multilabel Reader used for endpoint reading for Luminescence detection (Waltham, Mass.). Data were analyzed using a four-parameter fit in Microsoft Excel. […]

EGFR L858R+T790M = EGFR L858R+T790M (Homo sapiens, UniProt P00533, L858R/T790M); assay: pEGFR Y1068 ELISA assay, NIH3T3/EGFR_L858R+T790M cells; details: 3T3 cell line, 2 hrs compound treatment; read-out: pEGFRY1068 ELISA3T3T790M—L858R IC50;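 note: sandwich ELISA of EGFR phosphorylated at Tyr1068 in lysates of stably transfected NIH/3T3 cells, 11-point threefold dilution series run in duplicate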
Chain of EGFR L858R+T790M (P00533 25-1210 T790M/L858R): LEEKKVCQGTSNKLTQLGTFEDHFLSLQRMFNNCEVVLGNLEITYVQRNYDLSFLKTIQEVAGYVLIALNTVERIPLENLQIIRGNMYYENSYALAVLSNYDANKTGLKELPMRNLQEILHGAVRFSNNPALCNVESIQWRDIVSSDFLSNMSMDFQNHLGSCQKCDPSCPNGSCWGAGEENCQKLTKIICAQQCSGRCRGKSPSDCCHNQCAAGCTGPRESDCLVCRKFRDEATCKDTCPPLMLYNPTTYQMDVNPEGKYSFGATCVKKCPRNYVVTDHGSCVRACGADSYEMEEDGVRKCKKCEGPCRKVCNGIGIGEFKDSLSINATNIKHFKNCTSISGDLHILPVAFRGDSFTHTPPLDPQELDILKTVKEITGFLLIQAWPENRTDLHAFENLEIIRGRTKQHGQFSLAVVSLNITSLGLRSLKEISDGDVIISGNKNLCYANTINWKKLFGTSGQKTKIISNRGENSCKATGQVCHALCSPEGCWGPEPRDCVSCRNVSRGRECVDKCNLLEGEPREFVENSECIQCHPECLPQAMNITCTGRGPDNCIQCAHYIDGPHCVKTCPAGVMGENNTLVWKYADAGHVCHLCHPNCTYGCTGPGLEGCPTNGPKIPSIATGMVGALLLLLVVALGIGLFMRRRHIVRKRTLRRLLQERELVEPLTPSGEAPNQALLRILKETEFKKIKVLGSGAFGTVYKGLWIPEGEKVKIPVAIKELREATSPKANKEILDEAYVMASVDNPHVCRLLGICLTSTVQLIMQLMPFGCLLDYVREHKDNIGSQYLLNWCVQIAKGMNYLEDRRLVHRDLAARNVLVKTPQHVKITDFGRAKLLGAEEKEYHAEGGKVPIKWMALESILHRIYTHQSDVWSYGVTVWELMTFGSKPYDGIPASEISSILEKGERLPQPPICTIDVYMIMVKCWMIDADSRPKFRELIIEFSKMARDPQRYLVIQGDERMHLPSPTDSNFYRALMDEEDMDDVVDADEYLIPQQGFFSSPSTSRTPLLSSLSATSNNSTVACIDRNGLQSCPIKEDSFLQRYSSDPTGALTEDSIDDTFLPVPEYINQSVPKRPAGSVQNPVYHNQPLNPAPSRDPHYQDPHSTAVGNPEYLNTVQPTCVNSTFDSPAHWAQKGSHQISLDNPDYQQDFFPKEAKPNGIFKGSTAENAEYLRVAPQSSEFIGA

PC9RK = assay: Cell proliferation assay (CellTiter-Glo), PC9RK; details: value marked (PC9RK), read-out: 3T3 del_T790M IC50, (PC9RK)
Method: as §1, with “After three to five days of compound treatment, CellTiter-Glo® Reagent (#G7573, Promega, Madison, Wis.) was prepared in one of two ways. If thawing a frozen aliquot of CellTiter-Glo® Reagent, the aliquot was thawed and equilibrated to room temperature prior to use while keeping it protected from light. Alternatively, new bottles of CellTiter-Glo® Buffer and CellTiter-Glo® Substrate were thawed and equilibrated to room temperature prior to use. CellTiter-Glo® Buffer (100 mL) was transferred into the amber bottle containing CellTiter-Glo® Substrate to reconstitute the lyophilized enzyme/substrate mixture, forming the CellTiter-Glo® Reagent. The reconstituted reagent was mixed by gently inverting the contents to obtain a homogeneous solution, and went into solution easily in less than one minute. Any unused reconstituted CellTiter-Glo® Reagent was immediately aliquoted and frozen at −20° C., protected from light. Cell plates were equilibrated at room temperature for approximately 30 minutes. An equivolume amount of CellTiter-Glo® Reagent (100 μL) was added to each well. Plates were mixed for two minutes on an orbital shaker to induce cell lysis, and then allowed to incubate at room temperature for 10 minutes to stabilize the luminescent signal.” left out

NCI-H3255 = assay: Cell proliferation assay (CellTiter-Glo), NCI-H3255; details: Homo sapiens, value marked (H3255), read-out: 3T3 L858R IC50, (H3255)
Method: as §1

[1] = molecular target: T1, EGFR wildtype, endogenous (Homo sapiens, UniProt P00533); assay: pEGFR Y1068 ELISA assay, A549 cells; details: full serum media, stimulated 10 min with EGF (40 ng/mL), read-out: pEGFRY1068 ELISAA549 IC50;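 note: sandwich ELISA of phospho-EGFR Tyr1068 in cell lysates, cells exposed to compound for 2 h before EGF stimulation, 11-point threefold dilution series run in duplicate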
T1 construct: A549 (EGFR wildtype, endogenous); host or cells: A549
T1 sequence (P00533 25-1210): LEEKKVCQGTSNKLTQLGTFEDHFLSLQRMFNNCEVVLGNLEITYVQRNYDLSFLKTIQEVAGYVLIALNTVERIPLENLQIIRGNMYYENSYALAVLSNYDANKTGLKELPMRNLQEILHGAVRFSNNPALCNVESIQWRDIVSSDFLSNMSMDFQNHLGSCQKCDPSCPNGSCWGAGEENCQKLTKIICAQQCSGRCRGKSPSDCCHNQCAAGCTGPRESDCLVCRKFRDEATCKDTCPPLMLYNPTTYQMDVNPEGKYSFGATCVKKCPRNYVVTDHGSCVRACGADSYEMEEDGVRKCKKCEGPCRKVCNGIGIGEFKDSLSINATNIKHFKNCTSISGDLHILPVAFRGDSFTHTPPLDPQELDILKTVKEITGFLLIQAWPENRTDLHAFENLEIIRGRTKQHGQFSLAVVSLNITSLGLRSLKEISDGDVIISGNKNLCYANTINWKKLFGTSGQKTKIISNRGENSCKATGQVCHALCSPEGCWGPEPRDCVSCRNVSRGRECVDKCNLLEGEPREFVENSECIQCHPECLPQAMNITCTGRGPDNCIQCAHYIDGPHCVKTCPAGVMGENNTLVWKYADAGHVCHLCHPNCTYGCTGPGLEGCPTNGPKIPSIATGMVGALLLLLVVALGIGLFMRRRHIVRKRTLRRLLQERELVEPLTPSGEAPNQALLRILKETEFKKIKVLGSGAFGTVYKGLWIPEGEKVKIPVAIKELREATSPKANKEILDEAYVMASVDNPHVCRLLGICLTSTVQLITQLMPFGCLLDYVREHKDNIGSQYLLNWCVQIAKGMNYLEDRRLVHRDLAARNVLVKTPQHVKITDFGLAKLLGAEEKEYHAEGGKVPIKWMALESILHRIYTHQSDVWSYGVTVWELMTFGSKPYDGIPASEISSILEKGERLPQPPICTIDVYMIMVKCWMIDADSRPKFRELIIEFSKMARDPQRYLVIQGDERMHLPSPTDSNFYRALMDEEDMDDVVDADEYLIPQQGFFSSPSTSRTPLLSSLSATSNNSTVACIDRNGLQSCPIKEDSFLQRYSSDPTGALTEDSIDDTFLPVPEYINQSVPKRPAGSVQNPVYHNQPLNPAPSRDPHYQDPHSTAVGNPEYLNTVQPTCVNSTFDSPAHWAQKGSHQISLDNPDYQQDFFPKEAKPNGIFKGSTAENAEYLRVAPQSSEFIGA

EGFR L858R = EGFR L858R (Homo sapiens, UniProt P00533, L858R); assay: pEGFR Y1068 ELISA assay, NIH3T3/EGFR_L858R cells; details: 3T3 cell line, 2 hrs compound treatment; read-out: pEGFRY1068 ELISA3T3 L858R IC50;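 note: sandwich ELISA of phospho-EGFR Tyr1068 in lysates of stably transfected NIH/3T3 pools after 2 h compound exposure at 37 °C, 11-point threefold dilution series run in duplicate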
Chain of EGFR L858R (P00533 25-1210 L858R): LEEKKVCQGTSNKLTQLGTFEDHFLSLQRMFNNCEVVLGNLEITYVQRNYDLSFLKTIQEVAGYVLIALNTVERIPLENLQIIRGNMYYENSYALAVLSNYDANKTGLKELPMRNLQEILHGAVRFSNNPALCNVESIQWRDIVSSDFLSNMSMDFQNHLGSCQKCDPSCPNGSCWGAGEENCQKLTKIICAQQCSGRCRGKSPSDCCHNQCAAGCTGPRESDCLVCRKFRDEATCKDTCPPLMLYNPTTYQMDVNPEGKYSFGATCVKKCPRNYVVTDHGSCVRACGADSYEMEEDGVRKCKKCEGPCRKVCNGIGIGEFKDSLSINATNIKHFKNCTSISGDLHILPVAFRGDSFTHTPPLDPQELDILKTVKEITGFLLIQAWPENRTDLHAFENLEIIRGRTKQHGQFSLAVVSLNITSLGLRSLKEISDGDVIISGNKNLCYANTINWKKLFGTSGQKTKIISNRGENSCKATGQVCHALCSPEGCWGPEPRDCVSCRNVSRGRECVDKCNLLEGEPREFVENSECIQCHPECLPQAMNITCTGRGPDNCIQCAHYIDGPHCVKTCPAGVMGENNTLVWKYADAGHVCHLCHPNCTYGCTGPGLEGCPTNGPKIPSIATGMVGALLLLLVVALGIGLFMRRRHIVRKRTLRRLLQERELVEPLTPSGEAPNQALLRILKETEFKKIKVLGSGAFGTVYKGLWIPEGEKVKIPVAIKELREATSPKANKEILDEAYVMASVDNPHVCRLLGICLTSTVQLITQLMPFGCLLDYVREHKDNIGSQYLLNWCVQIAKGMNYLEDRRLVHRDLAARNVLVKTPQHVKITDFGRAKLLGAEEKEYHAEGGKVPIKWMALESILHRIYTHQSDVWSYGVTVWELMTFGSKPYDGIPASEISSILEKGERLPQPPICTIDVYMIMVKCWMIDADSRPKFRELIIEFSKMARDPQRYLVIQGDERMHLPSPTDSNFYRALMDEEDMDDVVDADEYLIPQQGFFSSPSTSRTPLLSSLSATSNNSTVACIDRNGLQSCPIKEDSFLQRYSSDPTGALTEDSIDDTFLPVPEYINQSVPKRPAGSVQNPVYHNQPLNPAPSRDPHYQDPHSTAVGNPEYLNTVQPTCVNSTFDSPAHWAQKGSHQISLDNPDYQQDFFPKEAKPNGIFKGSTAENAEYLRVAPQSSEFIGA

EGFR Del (PC9) = molecular target: T2, EGFR Del (PC9) (Homo sapiens, UniProt P00533, DEL746-750); assay: EGFR ELISA, PC9 Del cells; details: read-out: EGFR_ELISA9E PC9 Del IC50;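 note: cellular EGFR autophosphorylation at Tyr1068 quantified by sandwich ELISA of cell lysates after 2 h compound exposure at 37 °C, 11-point threefold dilution series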
T2 construct: endogenous in cells; host or cells: PC-9
T2 sequence (P00533 with tags, fused parts or gaps DEL746-750): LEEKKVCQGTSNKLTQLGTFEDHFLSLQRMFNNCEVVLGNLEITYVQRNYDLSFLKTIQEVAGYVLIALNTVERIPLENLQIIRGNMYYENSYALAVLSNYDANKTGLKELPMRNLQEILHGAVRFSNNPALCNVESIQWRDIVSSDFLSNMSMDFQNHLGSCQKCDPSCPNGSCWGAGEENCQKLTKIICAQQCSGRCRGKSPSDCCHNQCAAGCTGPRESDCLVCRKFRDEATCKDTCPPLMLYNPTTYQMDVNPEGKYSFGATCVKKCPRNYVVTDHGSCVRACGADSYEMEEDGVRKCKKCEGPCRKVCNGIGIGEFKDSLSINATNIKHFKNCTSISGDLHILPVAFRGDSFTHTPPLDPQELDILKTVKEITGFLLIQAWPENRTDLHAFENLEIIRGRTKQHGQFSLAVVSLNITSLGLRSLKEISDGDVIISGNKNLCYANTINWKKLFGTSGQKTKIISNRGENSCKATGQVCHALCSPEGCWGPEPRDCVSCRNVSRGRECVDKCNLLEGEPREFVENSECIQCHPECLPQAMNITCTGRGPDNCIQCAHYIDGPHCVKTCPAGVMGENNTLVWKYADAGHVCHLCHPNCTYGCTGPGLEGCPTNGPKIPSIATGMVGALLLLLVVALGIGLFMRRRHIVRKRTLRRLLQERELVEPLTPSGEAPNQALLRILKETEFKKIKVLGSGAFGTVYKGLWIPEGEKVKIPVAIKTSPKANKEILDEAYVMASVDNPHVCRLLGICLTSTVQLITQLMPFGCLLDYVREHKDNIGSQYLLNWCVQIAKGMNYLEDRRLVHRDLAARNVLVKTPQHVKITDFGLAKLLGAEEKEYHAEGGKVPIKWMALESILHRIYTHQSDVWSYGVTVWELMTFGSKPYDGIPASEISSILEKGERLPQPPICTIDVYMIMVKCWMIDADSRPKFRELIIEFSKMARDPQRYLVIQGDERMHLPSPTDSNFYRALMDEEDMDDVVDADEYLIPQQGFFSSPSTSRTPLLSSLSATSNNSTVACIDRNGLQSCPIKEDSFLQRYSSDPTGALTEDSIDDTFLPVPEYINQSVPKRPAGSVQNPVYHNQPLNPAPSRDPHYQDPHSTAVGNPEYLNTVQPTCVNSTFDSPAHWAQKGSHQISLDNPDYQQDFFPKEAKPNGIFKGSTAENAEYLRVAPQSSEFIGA

PC-9 = assay: Cell proliferation assay (CellTiter-Glo), PC-9; details: Homo sapiens, value marked (PC9), read-out: 3T3 del IC50, (PC9)
Method: as §1

EGFR E746-A750 deletion = EGFR E746-A750 deletion (Homo sapiens, UniProt P00533, DEL746-750); assay: pEGFR Y1068 ELISA assay, NIH3T3/EGFR_E746-A750 deletion cells; details: 3T3 Del cells, 2 hrs compound treatment; read-out: ELISA7E 3T3 Del IC50;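 note: sandwich ELISA on cell lysates detecting phospho-EGFR at Tyr1068, compounds run as 11-point threefold dilution series in duplicate, IC50 from inhibition of this phosphorylation signal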
[2] = molecular target: T3, EGFR L858R+T790M, endogenous (Homo sapiens, UniProt P00533, L858R/T790M); assay: pEGFR Y1068 ELISA assay, NCI-H1975 cells; details: value marked (H1975): NCI-H1975 cells, 2 hrs compound treatment; read-out: pEGFRY1068 ELISA3T3T790M—L858R IC50 (nM), (H1975);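 note: sandwich ELISA of endogenous phospho-EGFR (Tyr1068) in lysates of treated cells, 11-point 1:3 serial dilution tested in duplicate per plate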
T3 construct: NCI-H1975 (EGFR L858R+T790M, endogenous); host or cells: NCI-H1975

EGFR L858R, endogenous = molecular target: T4, EGFR L858R, endogenous (Homo sapiens, UniProt P00533, L858R); assay: pEGFR Y1068 ELISA assay, NCI-H3255 cells; details: value marked (H3255): NCI-H3255 cells, 2 hrs compound treatment; read-out: pEGFRY1068 ELISA3T3 L858R IC50 (nM), (H3255)
T4 construct: NCI-H3255 (EGFR L858R, endogenous); endogenous in cells; host or cells: NCI-H3255

| IC50 (NCI-H1975) | IC50 (EGFR L858R+T790M) | IC50 (PC9RK) | IC50 (NCI-H3255) | IC50 [1] | IC50 (EGFR L858R) | IC50 (EGFR Del (PC9)) | IC50 (PC-9) | IC50 (EGFR E746-A750 deletion) | IC50 [2] | IC50 (EGFR L858R, endogenous) | SMILES |
| --- | --- | --- | --- | --- | --- | --- | --- | --- | --- | --- | --- |
| 100 to 1000 nM | 153 nM | 100 to 1000 nM | 100 to 1000 nM | 5540 nM | 271 nM | 29 nM | 10 to 100 nM | 32 nM | – | – | C=CC(=O)N[C@H]1C[C@@H](Oc2nc(Nc3cnn(C)c3)nc3[nH]cc(-c4cccnc4)c23)C1 [Example 109] |
| > 1000 nM | – | 100 to 1000 nM | 100 to 1000 nM | > 10000 nM | 1010 nM | 6540 nM | > 1000 nM | – | 48 nM | – | C=CC(=O)N1C[C@H](COc2nc(Nc3cnn(CCO)c3)nc3[nH]cc(Cl)c23)[C@@H](OC)C1 [Example 101] |
| 100 to 1000 nM | 21 nM | 100 to 1000 nM | 100 to 1000 nM | 4960 nM | 297 nM | – | 100 to 1000 nM | 709 nM | – | – | C=CC(=O)N1C[C@H](COc2nc(Nc3cnn([C@H]4CCOC4)c3)nc3[nH]cc(Cl)c23)[C@@H](OC)C1 [Example 102] |
| 100 to 1000 nM | – | 100 to 1000 nM | 10 to 100 nM | > 10000 nM | – | 1200 nM | 100 to 1000 nM | – | 39 nM | 667 nM | C=CC(=O)N[C@]1(C)C[C@H](Oc2nc(Nc3cnn(C)c3)nc3[nH]cc(Cl)c23)C1 [Example 114] |
